What is called AUC is the area under the concentration-time curve, a measure of exposure.

These results are taken from publication PMC11266932, “Enhanced absorption of prenylated cinnamic acid derivatives from Brazilian green propolis by turmeric in humans and rats” (Food Science & Nutrition, 2024).

Molecules are shown by their SMILES. Like-named read-outs stand apart in the source and are kept apart here.

Series [1] can be described thus: Clinical trial: plasma concentration and AUC of cinnamic acid derivatives after ingestion of BGP alone or BGP plus herbal extract mixture. It counts as in vivo. To be noted: humans, BGP and herbal extracts co-administered; for AUC: plasma 0–24 h, after enzymatic deconjugation, mean ± SD, n = 6; for fold increase of AUC versus BGP administered alone: 0–24 h. The protocol: Six volunteers (three males and three females) completely understood the study protocol and consented to participate in the research. The following exclusion criteria were used for shortlisting participants: past or present medical history (asthma, significant allergies, heart, liver, kidney, and urinary tract disease); prescribed medication; pregnancy; smoking (>20 cigarettes/day); alcohol consumption (>500 mL/day of beer); use of dietary supplements and healthy foods; and participation in other clinical trials. The participants were instructed to refrain from consuming propolis and propolis‐containing foods and beverages during the study period and 1 week prior to the start of the study. After a 12‐h fast, the participants were given a test food comprising the encapsulated BGP powder or a mixture of the BGP powder and herbal extracts in two experimental periods separated by 1 week. […] The collected samples were centrifuged at 1500 g for 3 min at 23 ± 2°C to separate the plasma, which was subsequently preserved at −80°C until further sample preparation.
(§1) Briefly, 50 μL of plasma was treated with a sulfatase/β‐glucuronidase solution (sulfatase 15 units/sample) in 100 mM sodium acetate and 5 mM ascorbate at 37°C for 1 h. Following the incubation, 850 μL of methanol was added to the samples to stop the deconjugation reaction, after which centrifugation was performed at 2000 g for 10 min at 23 ± 2°C. The supernatant was evaporated under nitrogen gas and then reconstituted in a fixed volume of methanol. The samples were filtered through a 0.22 μm PTFE membrane and then analyzed by LC–MS/MS.
(§2) Briefly, 5 μL of the sample was injected into a reversed‐phase column (Acquity UPLC BEH C18, 2.1 × 100 mm, ID. 1.7 μm; Waters, Milford, MA, USA) held at 30°C. The elution was performed using solvent A (0.1% formic acid) and solvent B (acetonitrile) at a flow rate of 0.3 mL/min. The gradient profiles were as follows: 5% B (0–2 min), 5–95% B (2–22 min), 95% B (22–25 min), and 5% B (25–30 min). Tandem mass spectrometry (MS/MS) was conducted using an ion trap mass spectrometer with a heated electrospray ion source (HESI) in both positive and negative ionization modes (scan range m/z 70–1000). […] External standard curves for cinnamic acid derivatives were generated using eight concentrations of authentic standard solutions (1, 5, 10, 50, 100, 250, 500, and 1000 ng/mL).
(§3) Quantification of cinnamic acid derivatives in the plasma was performed using the Trace Finder software version 4.1 (Thermo Scientific). The plasma concentration versus time data for the analytes obtained from each human and rat were entered into a Microsoft Excel spreadsheet. The area under the plasma concentration–time curve (AUC) was calculated using the linear trapezoidal rule, extending to the last sampling point.

Series [2] is described as follows: Animal study: plasma concentration and AUC of cinnamic acid derivatives after intragastric BGP with or without each herbal extract. Format: in vivo, Wistar/ST rats. The following applies: rats. The protocol: Wistar/ST rats (male, 7 weeks old) were purchased from Japan SLC (Shizuoka, Japan). […] The rats were quarantined and acclimatized under the above conditions for 1 week and divided into six groups (eight rats/group) according to their average body weight (240–260 g). Each test sample listed in Table 1 was dissolved in 10% propylene glycol (1 mL per rat) and administered intragastrically to the rats after an overnight fasting period with free access to water. […] The collected samples were centrifuged at 1500 g for 10 min at 4°C to separate the plasma and preserved at −80°C until further sample preparation.
as §1, §2, §3

Setting [3] is: BGP co-administered with turmeric extract.

In the case of `CC(C)=CCc1cc(C=CC(=O)O)cc(O)c1O` [3,4‐dihydroxy‐5‐prenylcinnamic acid], the AUC in series [1] (both sexes, human, oral, read-out: AUC) stood at 34.5 ± 12.2 ng·h/mL. The “fold increase of AUC versus BGP administered alone” value in series [1] is on record as 1.8 fold. Besides, the “change of plasma concentration versus BGP alone (in words)” value in series [2] (BGP + turmeric extract, at 30 min and 3 h) is on record as “significant increases or increasing trends”. For the same compound, the “change of AUC versus BGP alone (in words)” value in series [2] (BGP co-administered with gotu kola extract) and in series [2] (setting [3]) was “tended to increase” in each case.
Regarding `CC(C)=CCc1cc(/C=C/C(=O)O)cc(C/C=C(\C)CO)c1O` [capillartemisin A], the “fold increase of AUC versus BGP administered alone” value in series [1] was found to be 1.6 fold; in series [2] (setting [3]), 1.7 fold. Besides, the AUC in series [1] was 57.0 ± 16.5 ng·h/mL. In addition, the “fold increase of plasma concentration versus BGP alone” value was 2.2 fold in series [2] (BGP + turmeric extract, 30 min after administration); 1.7 fold in series [2] (BGP + turmeric extract, 3 h after administration); 3.0 fold in series [2] (BGP + turmeric extract, 6 h after administration).
